Source: article PMC8780434 (Viruses, 2022)
Values joined by “and” are separate entries in the source; they are usually repeats but may differ in a detail not shown here. Equal values may be shown once. Read-outs that look alike come from different tables or passages of the source.

Tests used:
[1] = tested on: EV71; assay: Western blot of viral VP1 in EV71-infected RD cells; conditions: for VP1/Tubulin (%): EV71 MOI 1, 6 h, DMSO = 100; for antiviral activity against EV71 infections, rank among SSRIs: 5 or 10 μM, Western blot
[2] = tested on: EV71; assay: Immunofluorescence assay (IFA) of anti-EV71 potency; format: cell-based, EV71 (strain BrCr); conditions: Enterovirus A, EV71 MOI 0.1, 12 h p.i.
[3] = Secondary screening cell cytotoxicity; conditions: at 10 μM, secondary screening criterion
[4] = Cell viability assay (CellTiter 96 AQueous) in RD cells; conditions: human
[5] = Cell viability assay (CellTiter 96 AQueous) in HeLa cells; conditions: human
[6] = human, 12 h, 10 μM
[7] = in vitro; conditions: human
[8] = in vitro; conditions: human; remark: listed apart in the source
[9] = tested on: EV71; conditions: active in the range of several mM; cited from earlier work
[10] = tested on: EV71; assay: Time-of-addition assay (RT-qPCR of viral RNA); format: cell-based, EV71 (strain BrCr); conditions: RD cells, 10 μM, MOI 0.1, RT-qPCR
[11] = tested on: EV71; assay: Low-pH exposure assay (Western blot and plaque assay); format: cell-based, EV71 (strain BrCr); conditions: 10 μM; for times more viral titer than the sertraline-treated pH 7.4 control: 12 h
[12] = parameters: method as in earlier work; conditions: cited from earlier work
[13] = tested on: EV71; assay: Virus binding assay (RT-qPCR); conditions: RD cells, 5 or 10 μM, 0 °C 1 h, MOI 5
[14] = tested on: EV71; assay: Virus internalization assay (RT-qPCR); conditions: RD cells, 5 or 10 μM, 37 °C 1 h after binding, trypsinized, MOI 5
[15] = tested on: EV71; assay: FRET-based biosensor drug screening (HeLa-G2AwtR cells) for EV71 inhibitors; format: cell-based, EV71 (strain BrCr); conditions: Enterovirus A, read-out: inhibition rate
[16] = 5 μM drug, HeLa-G2AwtR cells, EV71 MOI 1, 12 h

CN(C)CCCN1c2ccccc2Sc2ccc(Cl)cc21 [CPZ, chlorpromazine]
VP1/Tubulin (%) ([1]; 5 μM): 109% | VP1/Tubulin (%) ([1]; 10 μM): 54%

CCN(CC)CCCC(C)Nc1ccnc2cc(Cl)ccc12 (stereo not shown) [CQ, chloroquine]
VP1/Tubulin (%) ([1]; 5 μM): 52% | VP1/Tubulin (%) ([1]; 10 μM): 15%

COCCCC/C(=N\OCCN)c1ccc(C(F)(F)F)cc1 [FLX, fluvoxamine]
VP1/Tubulin (%) ([1]; 5 μM): 82% | VP1/Tubulin (%) ([1]; 10 μM): 77% | antiviral activity against EV71 infections, rank among SSRIs [1]: weakest antiviral activity

CCCCCCCCc1ccc(CCC(N)(CO)CO)cc1 [Fingolimod]
IC50 ([2]; HeLa cells): 2.94 µM | IC50 ([2]; RD cells): 3.59 µM | cell cytotoxicity [3]: < 20% | CC50 at 12 h [4]: 24.5 µM | CC50 at 12 h [5]: 21.8 µM

Oc1c(Cl)cc(Cl)c(Cl)c1Cc1c(O)c(Cl)cc(Cl)c1Cl [Hexachorophene, Hexachlorophene]
cell cytotoxicity [3]: < 20%

OC(c1cc(C(F)(F)F)nc2c(C(F)(F)F)cccc12)C1CCCCN1 (stereo not shown) [Mefloquine]
IC50 ([2]; HeLa cells): 3.25 µM | IC50 ([2]; RD cells): 3.89 µM | cell cytotoxicity [6]: < 20% | CC50 at 12 h [7]: 30 µM | CC50 at 12 h [8]: 29.8 µM

Cl.N [NH4Cl]
antiviral effect compared with sertraline and chloroquine [9]: much weaker antiviral effect

OC(CNCC(O)C1CCc2cc(F)ccc2O1)C1CCc2cc(F)ccc2O1 (stereo not shown) [Nebivolol]
IC50 ([2]; HeLa cells): 4.17 µM | IC50 ([2]; RD cells): 4.74 µM | cell cytotoxicity [6]: < 20% | CC50 at 12 h [7]: 32.9 µM | CC50 at 12 h [8]: 32.7 µM

Fc1ccc([C@@H]2CCNC[C@H]2COc2ccc3c(c2)OCO3)cc1 [PAR, paroxetine]
VP1/Tubulin (%) ([1]; 5 μM): 74% | VP1/Tubulin (%) ([1]; 10 μM): 48%

CN[C@H]1CC[C@@H](c2ccc(Cl)c(Cl)c2)c2ccccc21 [Sertraline]
viral RNA levels, post-entry step ([10]; drug present 2-12 h): negligible effect | viral RNA levels, entry step ([10]; drug present -2 to 2 h): profound reduction | times more viral titer than the sertraline-treated pH 7.4 control ([11]; HeLa cells, pH 5 medium 10 min): 13.4 times | times more viral titer than the sertraline-treated pH 7.4 control ([11]; HeLa cells, pH 5.5 medium 10 min): 4 times | viral replication at the levels of viral protein after low-pH shocks ([11]; RD and HeLa cells, pH 5.5 and 5, 6 h p.i., Western blot): markedly rescued | times more viral titer than the sertraline-treated pH 7.4 control ([11]; RD cells, pH 5 medium 10 min): 16 times | times more viral titer than the sertraline-treated pH 7.4 control ([11]; RD cells, pH 5.5 medium 10 min): 5.7 times | cell cytotoxicity [6]: < 20% | maximum concentration in human plasma [12]: approximately 200 ng/mL and ~ 654 nM | viral RNA levels, virus binding, versus drug-free control [13]: undetectable difference | viral RNA levels, virus internalization, versus drug-free control [14]: undetectable difference | VP1/Tubulin (%) ([1]; 5 μM): 58% | VP1/Tubulin (%) ([1]; 10 μM): 10% | antiviral activity against EV71 infections, rank among SSRIs [1]: strongest inhibitory effect

COc1cccc2c1C(=O)c1c(O)c3c(c(O)c1C2=O)C[C@@](O)(C(C)=O)C[C@@H]3O[C@H]1C[C@H](N)[C@H](O)[C@H](C)O1 [daunorubicin]
inhibition at 5 µM ([15]; EV71, 12 h): > 50%

COc1cccc2c1C(=O)c1c(O)c3c(c(O)c1C2=O)C[C@@](O)(C(=O)CO)C[C@@H]3O[C@H]1C[C@H](N)[C@H](O)[C@H](C)O1 [doxorubicin]
inhibition at 5 µM [15, 16]: > 50%

COc1cccc2c1C(=O)c1c(O)c3c(c(O)c1C2=O)C[C@@](O)(C(=O)CO)C[C@@H]3O[C@H]1C[C@H](N)[C@@H](O)[C@H](C)O1 [epirubicin]
inhibition at 5 µM [15, 16]: > 50%

Nc1ccn([C@@H]2O[C@H](CO)[C@@H](O)C2(F)F)c(=O)n1 [gemcitabine]
inhibition at 5 µM [15, 16]: > 50%

CC(=O)[C@]1(O)Cc2c(O)c3c(c(O)c2[C@@H](O[C@H]2C[C@H](N)[C@H](O)[C@H](C)O2)C1)C(=O)c1ccccc1C3=O [idarubicin]
inhibition at 5 µM [15, 16]: > 50%

O=C1c2c(O)ccc(O)c2C(=O)c2c(NCCNCCO)ccc(NCCNCCO)c21 [mitoxantrone]
inhibition at 5 µM [15, 16]: > 50%
